Laboratory results taken from patent US6869957B1, “Non-peptide tachykinin receptor antagonists” (Eli Lilly and Company, priority 1993, dated 2005).

Legend:
NK-1 receptor = target: T1, NK-1 receptor (Homo sapiens, UniProt P25103); experiment: NK-1 Receptor Binding Assay (125I-labeled substance P, IM9 cells); conditions: for IC50: inhibits fifty percent of binding of 125I-substance P to IM9 cells
T1 construct: endogenous in cells; host or cells: IM9 cells (human cell line), whole cells
Method: (§1) The biological activity of the compounds of the present invention was evaluated employing an initial screening assay which rapidly and accurately measured the binding of the tested compound to known NK-1 and NK-2 receptor sites. Assays useful for evaluating tachykinin receptor antagonists are well known in the art.
NK-1 Receptor Binding Assay
Radioreceptor binding assays were performed using a derivative of a previously published protocol.
The IM9 cell line is a well-characterized and readily available human cell line.
The reaction was terminated by filtration through a glass fiber filter harvesting system using filters previously soaked for 20 minutes in 0.1% polyethylenimine. Specific binding of labeled substance P was determined in the presence of 20 nM unlabeled ligand.

human NK-2 receptor = target: T2, human NK-2 receptor (Homo sapiens, UniProt P21452); experiment: NK-2 Receptor Binding Assay ([125I]iodohistidyl-neurokinin A, CHO-hNK-2R membranes); conditions: for IC50: inhibits fifty percent of binding of [125I]iodohistidyl-neurokinin A to CHO-hNK-2R membranes; for NK-2 percent inhibition of binding: @ 10 μM
T2 construct: expressed in transfected cells; host or cells: CHO-hNK-2R cells (CHO-derived), membrane preparation
T2 sequence (P21452 1-398): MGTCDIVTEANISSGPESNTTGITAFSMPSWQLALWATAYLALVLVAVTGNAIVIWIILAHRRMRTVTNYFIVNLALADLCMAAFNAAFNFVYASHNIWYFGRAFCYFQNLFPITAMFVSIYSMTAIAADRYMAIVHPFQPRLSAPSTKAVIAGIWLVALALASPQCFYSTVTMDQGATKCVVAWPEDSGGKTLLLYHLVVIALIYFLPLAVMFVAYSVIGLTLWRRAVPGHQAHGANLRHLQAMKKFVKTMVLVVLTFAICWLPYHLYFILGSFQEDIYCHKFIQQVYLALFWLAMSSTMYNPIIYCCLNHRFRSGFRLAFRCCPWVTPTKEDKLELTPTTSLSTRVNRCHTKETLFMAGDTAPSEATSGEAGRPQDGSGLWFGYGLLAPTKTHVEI
Method: as §1, with “art. See. e.g., J. Jukic, et al., Life Sciences, 49:1463-1469 (1991); N. Kucharczyk, et al., Journal of Medicinal Chemistry, 36:1654-1661 (1993); N. Rouissi, et al., Biochemical and Biophysical Research Communications, 176:894-901 (1991).” for “art.”
NK-2 Receptor Binding Assay
The CHO-hNK-2R cells, a CHO-derived cell line transformed with the human NK-2 receptor, expressing about 400,000 such receptors per cell, were grown in 75 cm^2 flasks or roller bottles in minimal essential medium (alpha modification) with 10% fetal bovine serum. The gene sequence of the human NK-2 receptor is given in N. P. Gerard, et al., Journal of Biological Chemistry, 265:20455-20462 (1990).
For preparation of membranes, 30 confluent roller bottle cultures were dissociated by washing each roller bottle with 10 ml of Dulbecco's phosphate buffered saline (PBS) without calcium and magnesium, followed by addition of 10 ml of enzyme-free cell dissociation solution (PBS-based, from Specialty Media, Inc.). After an additional 15 minutes, the dissociated cells were pooled and centrifuged at 1,000 RPM for 10 minutes in a clinical centrifuge. Membranes were prepared by homogenization of the cell pellets in 300 ml 50 mM Tris buffer, pH 7.4 with a Tekma® homogenizer for 10-15 seconds, followed by centrifugation at 12,000 RPM (20,000×g) for 30 minutes using a Beckman JA-14® rotor. The pellets were washed once using the above procedure. and the final pellets were resuspended in 100-120 ml 50 mM Tris buffer, pH 7.4, and 4 ml aliquots stored frozen at −70° C. The protein concentration of this preparation was 2 mg/ml.
For the receptor binding assay, one 4-ml aliquot of the CHO-hNK-2R membrane preparation was suspended in 40 ml of assay buffer containing 50 mM Tris, pH 7.4, 3 mM manganese chloride, 0.02% bovine serum albumin (BSA) and 4 μg/ml chymostatin. A 200 μl volume of the homogenate (40 μg protein) was used per sample. The radioactive ligand was [^125I]iodohistidyl-neurokinin A (New England Nuclear, NEX-252), 2200 Ci/mmol. The ligand was prepared in assay buffer at 20 nCi per 100 μl; the final concentration in the assay was 20 pM. Non-specific binding was determined using 1 μM eledoisin. Ten concentrations of eledoisin from 0.1 to 1000 nM were used for a standard concentration-response curve.
All samples and standards were added to the incubation in 10 μl dimethylsulfoxide (DMSO) for screening (single dose) or in 5 μl DMSO for IC50 determinations. The order of additions for incubation was 190 or 195 μl assay buffer, 200 μl homogenate, 10 or 5 μl sample in DMSO, 100 μl radioactive ligand. The samples were incubated 1 hr at room temperature and then filtered on a 48 well Brandel cell harvester through GF/B filters which had been presoaked for two hours in 50 mM Tris buffer, pH 7.7, containing 0.5% BSA. The filter was washed 3 times with approximately 3 ml of cold 50 mm Tris buffer, pH 7.7. The filter circles were then punched into 12×75 mm polystyrene tubes and counted in a gamma counter.

T1 sequence (P25103 whole entry): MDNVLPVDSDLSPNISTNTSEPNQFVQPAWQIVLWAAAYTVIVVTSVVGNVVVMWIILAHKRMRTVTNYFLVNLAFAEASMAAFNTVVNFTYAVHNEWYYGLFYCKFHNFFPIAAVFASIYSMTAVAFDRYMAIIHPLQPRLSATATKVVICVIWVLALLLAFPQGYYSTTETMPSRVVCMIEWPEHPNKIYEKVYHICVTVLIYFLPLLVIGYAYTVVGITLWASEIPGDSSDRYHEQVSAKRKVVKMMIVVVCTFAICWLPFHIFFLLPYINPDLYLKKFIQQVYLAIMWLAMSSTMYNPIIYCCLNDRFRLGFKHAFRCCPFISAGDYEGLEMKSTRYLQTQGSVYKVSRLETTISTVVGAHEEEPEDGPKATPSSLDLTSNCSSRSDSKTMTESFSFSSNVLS

Row | Compound | IC50 (NK-1 receptor) [nM] | IC50 (human NK-2 receptor) [nM] | also measured
1 | CNC(=O)N(Cc1ccccc1OC)CC(Cc1c[nH]c2ccccc12)NC(=O)CN1CCN(c2ccccc2)CC1 (stereo not drawn) [Example 29, 3-(1H-indol-3-yl)-1-[N-(2-methoxybenzyl)-N-(methylaminocarbonyl)amino]-2-[N-(2-((4-phenyl)piperazin-1-yl)acetyl)amino]propane] | 1.5 | 1500 | –
2 | COC(=O)CC(=O)N(Cc1ccccc1OC)CC(Cc1c[nH]c2ccccc12)NC(=O)CN1CCN(c2ccccc2)CC1 (stereo not drawn) [Example 30] | 1 | 680 | –
3 | CCC(=O)N(Cc1ccccc1OC)CC(Cc1c[nH]c2ccccc12)NC(=O)CN1CCN(c2ccccc2)CC1 (stereo not drawn) [Example 26] | 0.75 | 650 | –
4 | COc1ccccc1CN(CC(Cc1c[nH]c2cc(C)ccc12)NC(c1ccccc1)(c1ccccc1)c1ccccc1)C(C)=O (stereo not drawn) [Example 171] | – | – | NK-1 percent inhibition of binding (NK-1 receptor; @ 5 μM): 0% @ 5 μM; NK-2 percent inhibition of binding (human NK-2 receptor): 6% @
5 | COc1ccccc1CN(C=O)CC(Cc1c[nH]c2ccccc12)NC(=O)CN1CCN(c2ccccc2)CC1 (stereo not drawn) [Example 24] | 1.2 | 640 | –
6 | COc1ccccc1CN(CC(Cc1c[nH]c2ccccc12)NC(=O)CN1CCC(NC(C)=O)(c2ccccc2)CC1)C(C)=O (stereo not drawn) [Example 68] | 0.41 | 2400 | –
7 | COc1ccccc1CN(CC(Cc1c[nH]c2cc(C)ccc12)NC(=O)CN1CCN(c2ccccc2)CC1)C(C)=O (stereo not drawn) [Example 114] | 29.2 | 940 | –
8 | CC(C)(C)OC(=O)NCC(=O)N(CC1CCCCC1)CC(Cc1c[nH]c2ccccc12)NC(=O)CN1CCN(c2ccccc2)CC1 (stereo not drawn) [Example 154] | – | 210 | NK-1 percent inhibition of binding (NK-1 receptor; @ 1 μM): 76% @
9 | COc1ccccc1CN(CC(Cc1c[nH]c2ccccc12)NC(=O)CNCc1ccccn1)C(C)=O (stereo not drawn) [Example 81] | 13 | 1100 | –
10 | COc1ccccc1CN(CC(Cc1c[nH]c2ccccc12)NC(=O)CCc1ccccc1)C(C)=O (racemic) [Example 89] | 170 | 1200 | –
11 | CCOC(=O)N1CCN(CC(=O)NC(Cc2c[nH]c3ccccc23)CN(Cc2ccccc2OC)C(C)=O)CC1 (stereo not drawn) [Example 80] | 19 | 3400 | –
12 | CC(=O)N(CCc1ccccc1)CC(Cc1c[nH]c2ccccc12)NC(=O)CN1CCN(c2ccccc2)CC1 (stereo not drawn) [Example 43] | 179 | 39 | –
13 | COc1ccccc1CNCC(CC1CNc2ccccc21)NC(=O)CN1CCN(c2ccccc2)CC1 (mixture of isomers) [Example 137] | 220 | 2700 | –
14 | CC(=O)N(CC(Cc1c[nH]c2ccccc12)NC(c1ccccc1)(c1ccccc1)c1ccccc1)c1ccccc1 (stereo not drawn) [Example 167] | – | 21000 | NK-1 percent inhibition of binding (NK-1 receptor; @ 5 μM): 0% @ 5 μM
15 | O=C(CN1CCN(c2ccccc2)CC1)NC(CNCc1ccccc1)Cc1c[nH]c2ccccc12 (stereo not drawn) [Example 1] | 53 | 1700 | –
16 | COc1ccccc1CN(CC(NC(=O)CN1CCN(c2ccccc2)CC1)c1ccccc1)C(C)=O (stereo not drawn) [Example 138] | 770 | 2500 | –
17 | CC(=O)N(Cc1ccccc1)CC(Cc1c[nH]c2ccc(F)cc12)NC(=O)CN1CCC(N2CCCCC2)CC1 (stereo not drawn) [Example 119] | 9.5 | 2700 | –
18 | COc1ccccc1CN(CC(Cc1cn(C)c2ccccc12)NC(=O)CN1CCN(c2ccccc2)CC1)C(C)=O (stereo not drawn) [Example 113] | 7.8 | 1200 | –

Row | Compound | IC50 (NK-1 receptor) [nM] | IC50 (human NK-2 receptor) [nM] | also measured
19 | O=C(CN1CCN(c2ccccc2)CC1)NC(CNCC1CCCCC1)Cc1c[nH]c2ccccc12 (stereo not drawn) [Example 153] | 650 | 540 | –
20 | CN(CC(Cc1c[nH]c2ccccc12)NC(=O)CN1CCC(N2CCCCC2)CC1)C(=O)c1ccccc1 (stereo not drawn) [Example 155] | – | 12200 | NK-1 percent inhibition of binding (NK-1 receptor; @ 5 μM): 63% @
21 | CC(=O)N(Cc1ccccc1C)CC(Cc1c[nH]c2ccccc12)NC(=O)CN1CCN(c2ccccc2)CC1 (stereo not drawn) [Example 14] | 3.1 | 1000 | –
22 | COc1ccccc1CN(CC(Cc1c[nH]c2ccc(Br)cc12)NC(=O)CN1CCN(c2ccccc2)CC1)C(C)=O (stereo not drawn) [Example 116] | 58 | 930 | –
23 | COc1ccccc1CN(CC(Cc1c[nH]c2ccccc12)NC(C)=O)C(=O)CN1CCN(c2ccccc2)CC1 (stereo not drawn) [Example 107] | – | 420 | NK-1 percent inhibition of binding (NK-1 receptor; @ 1 μM): 74% @
24 | COc1ccccc1CN(CC(N)Cc1ccccc1)C(C)=O (stereo not drawn) [Example 159] | – | – | NK-1 percent inhibition of binding (NK-1 receptor; @ 5 μM): 54% @; NK-2 percent inhibition of binding (human NK-2 receptor): 11 @ %
25 | CC(=O)N(Cc1ccccc1)CC(Cc1c[nH]c2ccccc12)NC(=O)CN1CCN(c2ccccc2)CC1 (stereo not drawn) [Example 12] | 1.6 | 1600 | –
26 | COc1ccccc1CN(CC(NC(c1ccccc1)(c1ccccc1)c1ccccc1)c1ccc(Cl)c(Cl)c1)C(C)=O (stereo not drawn) [Example 176] | – | – | NK-1 percent inhibition of binding (NK-1 receptor; @ 5 μM): 9% @ 5 μM; NK-2 percent inhibition of binding (human NK-2 receptor): 0% @
27 | CC(=O)N(CC(Cc1c[nH]c2ccccc12)NC(=O)CN1CCC(N2CCCCC2)CC1)c1ccccc1 (stereo not drawn) [Example 53] | – | 5200 | NK-1 percent inhibition of binding (NK-1 receptor; @ 5 μM): 58% @
28 | CC(=O)N(C)CC(Cc1c[nH]c2ccccc12)NC(c1ccccc1)(c1ccccc1)c1ccccc1 (stereo not drawn) [Example 164] | – | 6200 | NK-1 percent inhibition of binding (NK-1 receptor; @ 5 μM): 0% @ 5 μM
29 | COC(=O)CN(Cc1ccccc1OC)CC(Cc1c[nH]c2ccccc12)NC(=O)CN1CCN(c2ccccc2)CC1 (stereo not drawn) [Example 10] | 19 | 820 | –
30 | CN(CC(Cc1c[nH]c2ccccc12)NC(=O)CN1CCN(C2CCCCC2)CC1)C(=O)c1ccccc1 (stereo not drawn) [Example 158] | 450 | 3800 | –
31 | COc1ccccc1CN(CC(Cc1c[nH]c2ccccc12)NC(=O)CNCc1cccnc1)C(C)=O (stereo not drawn) [Example 82] | 13 | 1200 | –
32 | COc1ccccc1CN(CC(Cc1ccccc1)NC(c1ccccc1)(c1ccccc1)c1ccccc1)C(C)=O (stereo not drawn) [Example 177] | – | – | NK-1 percent inhibition of binding (NK-1 receptor; @ 10 μM): 0% @; NK-2 percent inhibition of binding (human NK-2 receptor): 12% @
33 | COc1ccccc1CN(CC(NC(c1ccccc1)(c1ccccc1)c1ccccc1)c1ccccc1)C(C)=O (stereo not drawn) [Example 175] | – | – | NK-1 percent inhibition of binding (NK-1 receptor; @ 5 μM): 28% @; NK-2 percent inhibition of binding (human NK-2 receptor): 9% @
34 | CC(=O)N(C)CC(Cc1c[nH]c2ccccc12)NC(=O)CN1CCN(c2ccccc2)CC1 (stereo not drawn) [Example 38] | – | 8000 | NK-1 percent inhibition of binding (NK-1 receptor; @ 5 μM): 30% @
35 | COc1ccccc1CN(CC(Cc1c[nH]c2ccccc12)NC(=O)CN1CCCCCC1)C(C)=O (stereo not drawn) [Example 61] | 7.2 | 940 | –
36 | COc1ccccc1CN(CC(Cc1c[nH]c2ccccc12)NC(=O)CN1CCN(c2ccc(Cl)cc2)CC1)C(C)=O (stereo not drawn) [Example 69] | 5.4 | 830 | –
